# Experimental data reported in ChEMBL document CHEMBL6182856, “Novel one-/two-photon excited carbazole/quinolinium photosensitizers manifest nanomolar and hypoxia-resistant tumor photodynamic therapy by accelerating apoptosis, ferroptosis, and autophagy” (Eur J Med Chem, 2025).
# Key:
# Assay type in all cases: functional
# [1] = tested on: A549; test: Induction of apoptosis in human A549 cells assessed as late apoptotic cells measured upon light irradiation by AnnexinV-FITC/PI staining based flow cytometric analysis (reference value: 0.15%)
# [2] = Photosensitizing ability of the compound in methanol assessed as singlet oxygen production by measuring quantum yield measured upon irradiation by DPBF based assay
# [3] = tested on: 4T1; test: Phototherapeutic index, ratio of IC50 for cytotoxicity against mouse 4T1 cells measured under normoxia conditions to IC50 for phototoxicity against mouse 4T1 cells measured under normoxia conditions and after one-photon excitation upon irradiation with light at 520 nm, 200 mW/cm2 for 10 mins
# [4] = tested on: A549; test: Induction of autophagy in human A549 cells assessed as increase in Beclin-I expression measured upon light irradiation by western blot analysis relative to control
# [5] = tested on: A549; test: Induction of mitochondrial damage in human A549 cells assessed as increase in ratio of green to red fluorescence intensity measured upon light irradiation by JC-1 staining based fluorescence analysis relative to control
# [6] = Photosensitizing ability of the compound assessed as hydroxyl radical production upon irradiation by HPF probe based assay relative to RuB
# [7] = tested on: A549; test: Photosensitizing ability of the compound in human A549 cells assessed as increase in intracellular singlet oxygen generation by measuring increase in fluorescence intensity measured upon light irradiation under normoxia conditions by SOSG probe based fluorescence analysis relative to FLI in cells without irradiation
compound,measurement,setting,value
CCn1c2ccc(/C=C/c3cc[n+](C)c4ccccc34)cc2c2cc(N(c3ccccc3)c3ccccc3)ccc21.[I-],Activity,[1],87.8%
same,Activity,[2],0.38
same,Ratio IC50,[3],21
same,fold change (FC),[4],2
same,fold change (FC),[5],~100
same,fold change (FC),[6],3
same,fold change (FC),[7],4
